The values below come from patent US6706740B2, “Fungicidal heterocyclic aromatic amides and their compositions, methods of use and preparation” (Dow AgroSciences LLC, priority 1999, dated 2004).

Like-named read-outs stand apart in the source and are kept apart here.

In experiment [1] the test system is Phytophthora infestans (PHYTIN). Description: microbe, parasite or virus in culture. It counts as cell-based. Particulars: for inhibition at 25 ppm: Phytophthora infestans, read-out: PHYTIN in vitro Growth Inhibition.
The subject of experiment [2] is Stagonospora nodorum (Leptosphaeria nodorum—LEPTNO). Description: In vitro fungal growth inhibition, Stagonospora nodorum (LEPTNO). It counts as cell-based. Particulars: for inhibition at 25 ppm: Leptosphaeria, read-out: LEPTNO in vitro Growth Inhibition.
The subject of experiment [3] is Magnaporthe grisea (Pyricularia oryzae—PYRIOR). Description: microbe, parasite or virus in culture. It counts as cell-based. Particulars: for inhibition at 25 ppm: Pyricularia oryzae, read-out: PYRIOR in vitro Growth Inhibition.
The next experiment relates to Septoria tritici—SEPTTR. The experiment is described as follows: Leaf Blotch of Wheat, in vivo whole plant, 24 Hour Protectant. The conditions noted are these: for pest or weed control at 100 ppm: Zymoseptoria tritici, 24 h, read-out: SEPTTR in vivo 1 Day Protectant.
In experiment [4] the test system is Leptosphaeria nodorum—LEPTNO. The experiment is described as follows: Glume Blotch of Wheat, in vivo whole plant, 24 Hour Protectant. Particulars: for pest or weed control at 100 ppm: Leptosphaeria, read-out: LEPTNO in vivo 1 Day Protectant.
For experiment [5], the system named is Rhizoctonia solani (RHIZSO). Description: microbe, parasite or virus in culture. Type of experiment: cell-based. The conditions noted are these: for inhibition at 25 ppm: Rhizoctonia solani, read-out: RHIZSO in vitro Growth Inhibition.
The test system of experiment [6] is Mycosphaerella graminicola (Septoria tritici—SEPTTR). Description: In vitro fungal growth inhibition, Mycosphaerella graminicola (SEPTTR). Type of experiment: cell-based. Particulars: for inhibition at 25 ppm: Zymoseptoria tritici, read-out: SEPTTR in vitro Growth Inhibition.
Experiment [7] deals with Phytophthora infestans—PHYTIN. The experiment is described as follows: whole plant or invertebrate. It counts as in vivo. Particulars: for pest or weed control at 100 ppm: Phytophthora, in Solanum lycopersicum, 24 h, read-out: PHYTIN in vivo 1 Day Protectant.
The subject of the next experiment is Ustilago maydis (USTIMA). Description: microbe, parasite or virus in culture. Type of experiment: cell-based. Particulars: for inhibition at 25 ppm: Mycosarcoma maydis, read-out: USTIMA in vitro Growth Inhibition.
The test system of experiment [8] is Puccinia recondita—PUCCRT. The experiment is described as follows: Brown Rust of Wheat, in vivo whole plant, 24 Hour Protectant. The conditions noted are these: for pest or weed control at 100 ppm: Puccinia, read-out: PUCCRT in vivo 1 Day Protectant.
Another experiment deals with Erysiphe graminis—ERYSGT. The experiment is described as follows: Powdery Mildew of Wheat, in vivo whole plant, 24 Hour Protectant. The conditions noted are these: for pest or weed control at 100 ppm: Erysiphe, read-out: ERYSGT in vivo 1 Day Protectant.
[9] abbreviates: wheat plants sprayed at 100 ppm, inoculated after 24 hours, control of fungal infection vs untreated plants.
Where [10] appears, read: 100 ppm spray, wheat, 24 hour protectant, control of fungal infection vs untreated plants.
Where [11] appears, read: 100 ppm spray, 24 hour protectant, wheat, control of fungal infection vs untreated plants.
Setting [12] is: 100 ppm spray, wheat, 24 hour protectant, % control of fungal infection vs untreated plants.

`N#Cc1ccc(Oc2cccc(NC(=O)c3nc(Br)ccc3O)c2)cc1` [Compound 500]: the inhibition at 25 ppm (in experiment [1]; in [2] (25 ppm in the growth medium); in experiment [3]; in experiment [5]; in [6] (25 ppm in the growth medium); in the experiment with Ustilago maydis (USTIMA)) was below 80% throughout. Also, the pest or weed control at 100 ppm with Septoria tritici—SEPTTR (setting [9]) is 25 to 74%; in [4] (setting [9]) it was below 25%; in [7] it was below 25%; in experiment [8] (setting [9]) it was below 25%; with Erysiphe graminis—ERYSGT (setting [9]), below 25%.

Regarding `COc1ccnc(C(=O)Nc2cc(C)c(OC(=O)c3ccc(C(F)(F)F)cc3)c(C)c2)c1O` [Compound 457], the inhibition at 25 ppm is below 80% in experiment [1]; above 80% in experiment [2] (25 ppm in growth medium); below 80% in experiment [3]; below 80% in [5]; below 80% in [6] (25 ppm in growth medium); below 80% in the experiment on Ustilago maydis (USTIMA). The pest or weed control at 100 ppm in the experiment on Septoria tritici—SEPTTR (setting [10]) is 25 to 74%; in experiment [4] (setting [10]), below 25%; in [7] it was below 25%; in [8] (setting [10]), below 25%; with Erysiphe graminis—ERYSGT (setting [10]), below 25%.

With `COc1ccnc(C(=O)NC(COC(=O)CCc2ccccc2)C(=O)OC(C)COC(=O)C(C)C)c1O` (stereo not shown) [Compound 359], in experiment [1] (25 ppm in growth medium), the “PHYTIN in vitro Growth Inhibition” value is recorded as “− (less than 80% growth inhibition)”. Further, in experiment [2] (25 ppm in growth medium), the “LEPTNO in vitro Growth Inhibition” value was “− (less than 80% growth inhibition)”. The “PYRIOR in vitro Growth Inhibition” value in experiment [3] (25 ppm in growth medium) is recorded as “− (less than 80% growth inhibition)”. In the experiment with Septoria tritici—SEPTTR (setting [10]), the “SEPTTR in vivo 1 Day Protectant” value is “+ +”. Besides, the “LEPTNO in vivo 1 Day Protectant” value in [4] (setting [10]) is on record as “+ (25-74% control of fungal infection)”. The “RHIZSO in vitro Growth Inhibition” value in experiment [5] was “− (key: +: at least 80% growth inhibition; −: less than 80% growth inhibition)”. For the same compound, the “SEPTTR in vitro Growth Inhibition” value in experiment [6] (25 ppm in growth medium) was “− (less than 80% growth inhibition)”. Moreover, the “PHYTIN in vivo 1 Day Protectant” value in [7] (100 ppm spray, tomato, 24 hour protectant, control of fungal infection vs untreated plants) is “− (<25% control of fungal infection)”. Moreover, in the experiment on Ustilago maydis (USTIMA), the “USTIMA in vitro Growth Inhibition” value is given as “− (key: +: at least 80% growth inhibition; −: less than 80% growth inhibition)”. Besides, the “PUCCRT in vivo 1 Day Protectant” value in experiment [8] (setting [10]) was “+ +”. Moreover, the “ERYSGT in vivo 1 Day Protectant” value in the experiment on Erysiphe graminis—ERYSGT (setting [10]) is reported as “− (<25% control of fungal infection)”.

Turning to `COc1cc(Br)nc(C(=O)N[C@H]2COC(=O)[C@H](Cc3ccccc3)[C@@H](OC(=O)C3CCCCC3)[C@H](C)OC2=O)c1O` [Compound 501], the inhibition at 25 ppm in [1] was below 80%; in experiment [2] (25 ppm in the growth medium), above 80%; in experiment [3], above 80%; in [5], below 80%; in experiment [6] (25 ppm in the growth medium) it was above 80%; in the experiment with Ustilago maydis (USTIMA), above 80%. Also, the pest or weed control at 100 ppm in the experiment with Septoria tritici—SEPTTR (setting [9]) was below 25%; in experiment [4] (setting [9]) it was 25 to 74%; in experiment [7], below 25%; in experiment [8] (setting [9]), 25 to 74%; with Erysiphe graminis—ERYSGT (setting [9]) it was below 25%.

In the case of `CCCCC1(C)CCCC(NC(=O)c2nccc(OC)c2O)C1` (stereo not shown) [Compound 254], the inhibition at 25 ppm was above 80% in experiment [1]; above 80% in experiment [2] (25 ppm in growth medium); above 80% in experiment [3]; below 80% in [5]; above 80% in experiment [6] (25 ppm in growth medium); below 80% in the experiment on Ustilago maydis (USTIMA). Further, the pest or weed control at 100 ppm is 25 to 74% with Septoria tritici—SEPTTR (setting [11]); 25 to 74% in [4] (setting [11]); below 25% in experiment [7]; 25 to 74% in [8] (setting [11]); below 25% in the experiment with Erysiphe graminis—ERYSGT (setting [11]).

For `COc1cccc(Oc2ccccc2NC(=O)c2nccc(OC)c2O)c1` [Compound 428], the inhibition at 25 ppm was below 80% in [1]; below 80% in experiment [2] (25 ppm in growth medium); above 80% in experiment [3]; below 80% in [5]; above 80% in [6] (25 ppm in growth medium); below 80% with Ustilago maydis (USTIMA). Moreover, the pest or weed control at 100 ppm (with Septoria tritici—SEPTTR (setting [10]); in experiment [4] (setting [10]); in experiment [7]; in [8] (setting [10]); in the experiment on Erysiphe graminis—ERYSGT (setting [10])) was below 25% each time.

Regarding `COc1ccnc(C(=O)N[C@H]2COC(=O)[C@H](Cc3ccccc3)[C@@H](OC(=O)C(C)C)[C@H](C)OC2=O)c1OC(=O)c1ccco1` [Compound 673], the inhibition at 25 ppm (in experiment [1]; in experiment [2] (25 ppm in growth medium); in experiment [3]; in [5]; in [6] (25 ppm in growth medium); in the experiment with Ustilago maydis (USTIMA)) was below 80% each time. Further, the “SEPTTR in vivo 1 Day Protectant” value with Septoria tritici—SEPTTR (setting [12]) is given as “+ +”. The “LEPTNO in vivo 1 Day Protectant” value in experiment [4] (setting [12]) is “+ +”. In addition, the pest or weed control at 100 ppm (in experiment [7]; in the experiment on Erysiphe graminis—ERYSGT (setting [12])) was below 25% in each case. Further, in experiment [8] (setting [12]), the “PUCCRT in vivo 1 Day Protectant” value was “+ +”.

As for `COC(=O)C(COC(=O)C(C)c1ccccc1)NC(=O)c1nccc(OC)c1O` (stereo not shown) [Compound 343], the inhibition at 25 ppm (in experiment [1]; in [2] (25 ppm in growth medium); in experiment [3]; in experiment [5]; in [6] (25 ppm in growth medium); with Ustilago maydis (USTIMA)) was below 80% throughout. In addition, the pest or weed control at 100 ppm in the experiment with Septoria tritici—SEPTTR (setting [10]) was below 25%; in experiment [4] (setting [10]) it was 25 to 74%; in [7], below 25%; in experiment [8] (setting [10]) it was below 25%; in the experiment with Erysiphe graminis—ERYSGT (setting [10]), 25 to 74%.

Regarding `COc1ccnc(C(=O)NC2CC(C)(C)CC(C)(COCC(Cl)CCl)C2)c1O` (stereo not shown) [Compound 257], the inhibition at 25 ppm in experiment [1] was above 80%; in experiment [2] (25 ppm in growth medium), above 80%; in experiment [3] it was below 80%; in [5], below 80%; in experiment [6] (25 ppm in growth medium) it was above 80%; in the experiment with Ustilago maydis (USTIMA) it was above 80%. Further, the pest or weed control at 100 ppm in the experiment on Septoria tritici—SEPTTR (setting [11]) is 25 to 74%; in [7], below 25%; in experiment [8] (setting [11]), 25 to 74%; in the experiment with Erysiphe graminis—ERYSGT (setting [11]), below 25%. Moreover, in experiment [4] (setting [11]), the “LEPTNO in vivo 1 Day Protectant” value is listed as “+ +”.

On to `CCCO[C@@H]1[C@@H](OCCC)[C@H](OCCC)CO[C@H]1NC(=O)c1nccc(OC)c1O` [Compound 331], for which the inhibition at 25 ppm is below 80% in [1]; below 80% in experiment [2] (25 ppm in growth medium); above 80% in experiment [3]; below 80% in experiment [5]; below 80% in experiment [6] (25 ppm in growth medium); below 80% with Ustilago maydis (USTIMA). Also, the pest or weed control at 100 ppm with Septoria tritici—SEPTTR (setting [10]) is below 25%; in experiment [4] (setting [10]) it was 25 to 74%; in experiment [7], below 25%; in experiment [8] (setting [10]), below 25%; in the experiment with Erysiphe graminis—ERYSGT (setting [10]), below 25%.

For the compound `COc1ccnc(C(=O)NC2CC(C)(C)C=CC=C2C)c1O` (stereo not shown) [Compound 278], the inhibition at 25 ppm (in experiment [1]; in experiment [2] (25 ppm in growth medium); in [3]; in experiment [5]; in experiment [6] (25 ppm in growth medium); with Ustilago maydis (USTIMA)) was below 80% in each case. Besides, the pest or weed control at 100 ppm with Septoria tritici—SEPTTR (setting [11]) was 25 to 74%; in [4] (setting [11]) it was 25 to 74%; in experiment [7], below 25%; in [8] (setting [11]) it was 25 to 74%; in the experiment on Erysiphe graminis—ERYSGT (setting [11]) it was below 25%.
